Laboratory results published in PubChem BioAssay (NCI).
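Growth conditions: 96-well plates. Treatment: test compound, 48 hours, 5 concentrations. Analysis: linear interpolation between bracketing concentrations; unreached endpoints set to highest concentration. GI50: concentration for 50% inhibition of growth. Definition used: TGI = concentration required for complete inhibition of growth.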

Tests used:
Assay in all cases: NCI tumour cell line growth inhibition, 48 h
ACHN renal = tested on: ACHN renal
CCRF-CEM leukemia = tested on: CCRF-CEM leukemia
MOLT-4 leukemia = tested on: MOLT-4 leukemia
NCI-H522 lung = tested on: NCI-H522 lung
OVCAR-5 ovarian = tested on: OVCAR-5 ovarian
RXF 393 renal = tested on: RXF 393 renal
SF-539 CNS = tested on: SF-539 CNS
SK-MEL-2 melanoma = tested on: SK-MEL-2 melanoma
HOP-62 NSCLC = tested on: HOP-62 NSCLC
OVCAR-3 ovarian = tested on: OVCAR-3 ovarian

Compound	GI50 (ACHN renal) [µM]	TGI (ACHN renal) [µM]	GI50 (CCRF-CEM leukemia) [µM]	TGI (CCRF-CEM leukemia) [µM]	GI50 (MOLT-4 leukemia) [µM]	TGI (MOLT-4 leukemia) [µM]	GI50 (NCI-H522 lung) [µM]	TGI (NCI-H522 lung) [µM]	GI50 (OVCAR-5 ovarian) [µM]	TGI (OVCAR-5 ovarian) [µM]	GI50 (RXF 393 renal) [µM]	TGI (RXF 393 renal) [µM]	GI50 (SF-539 CNS) [µM]	TGI (SF-539 CNS) [µM]	GI50 (SK-MEL-2 melanoma) [µM]	TGI (SK-MEL-2 melanoma) [µM]	TGI (HOP-62 NSCLC) [µM]	TGI (OVCAR-3 ovarian) [µM]	GI50 (HOP-62 NSCLC) [µM]	GI50 (OVCAR-3 ovarian) [µM]
CN(C)C/C=C/C(=O)Nc1ccc(C(=O)N[C@@]2(C)CCC[C@@H](Nc3ncc(Cl)c(-c4c[nH]c5ccccc45)n3)C2)nc1	< 0.0108	0.741	< 0.01	1.3	0.0178	1.12	0.0178	0.0664	0.0213	1.24	0.0144	0.0344	0.0195	0.0929	0.0129	0.0511				
COc1ccc(C=O)cc1O[Si](C)(C)C(C)(C)C		> 100		> 100		> 100				> 100		> 100		> 100		> 100	> 100	> 100		
COC(=O)C(=O)CC(=O)CCn1[nH]c(=O)c(Cl)c(Cl)c1=O		> 100						> 100		> 100		> 100		> 100		> 100	> 100	> 100		
O=C1NC(=S)S/C1=C/c1ccc2c(c1)OCO2	> 100	> 100	> 100	> 100	> 100	> 100	> 100	> 100	> 100	> 100	> 100	> 100	> 100	> 100			> 100	> 100	> 100	65.1
Cc1ccc(S(=O)(=O)N/N=C2\CCCCC23CCC(=O)NC3)cc1 (stereo not drawn)		> 100		> 100		> 100		> 100				> 100		> 100		> 100	> 100	> 100		
CCCC1(CC(=O)O)OCCc2c1[nH]c1ccccc21 (stereo not drawn)		> 100		> 100		> 100				> 100		> 100		> 100		> 100	> 100	> 100		
COc1ccc2c(c1)C(=O)CCc1cc(OC)c(OC)c(OC)c1-2	0.0505	> 100	< 0.01	> 100	< 0.01	35.4								87.1	< 0.01					
CCCCCCCCCCCC(=O)OCCOCCOCCOCCOCCOC(=O)CCCCCCCCCCC		> 100		> 100		> 100		> 100		> 100		> 100				> 100	> 100	> 100		
O=C(Nc1ccc(Cl)cc1)C1C(=O)C(=O)N(c2ccc(Cl)cc2)C1=O (stereo not drawn)		> 100		> 100		> 100		> 100		> 100		> 100		> 100		> 100		> 100		
COc1cc(C=O)c(-c2c(C=O)ccc3c2OCO3)c(OC)c1OC		> 100		> 100		> 100		> 100		> 100				> 100		> 100	> 100	> 100		
Cc1ccc(C2=C(c3ccc(C)cc3)C3(c4ccc(C)cc4)C4C(=O)OC(=O)C4C2(c2ccc(C)cc2)S3=O)cc1 (stereo not drawn)	15.8	83.3	25.2	> 100			34	> 100	96.4	> 100	13.9	30.4	6.3	31.9	16.2	78.8	42.5	39.4	16.4	15.5
N#CCC(=O)N/N=C1/C(=O)N(c2ccc(Cl)cc2)C(=O)C(=O)C1c1nc2ccccc2s1 (stereo not drawn)		> 100						> 100		> 100		> 100				> 100	> 100	> 100		
Cc1ccc(S(=O)(=O)N=Nc2c(O)[nH]c3cc(O)c(C(=O)O)cc23)cc1		> 100		> 100		> 100		> 100		> 100		> 100				> 100	> 100	> 100		
O=C1N/C(=C\[N+](=O)[O-])c2ccccc21		> 100		> 100		> 100		> 100		> 100		> 100		> 100			> 100	> 100		
O=C(Nc1cccc(O)c1)C(=O)C1C(=O)NC(=S)NC1=O		> 100		> 100		> 100		> 100				> 100		> 100				> 100		
CC(C)CNc1nc(-c2ccccc2Cl)nc2ccccc12	15.1	33.8	18.8	43.3	17.9	54.9	25.5	> 100	18.6	35.2	15.1	31.2			23.5	63.4	29.2	31.2	15.8	17
CCOC(=O)[CH-]C(=O)C12CC3CC(CC(C3)C1)C2.CCOC(=O)[CH-]C(=O)C12CC3CC(CC(C3)C1)C2.CC[O-].CC[O-].[Ti+4]	> 100	> 100	> 100	> 100	> 100	> 100	> 100	> 100					> 100	> 100			> 100	> 100	> 100	> 100
Cc1ccc(S(=O)(=O)OC2CC=CC2)cc1		> 100		> 100		> 100				> 100		> 100				> 100	> 100	> 100		
CN(C)CCOc1ccc([N+](=O)[O-])c2cccnc12		> 100		> 100		> 100		> 100		> 100				> 100		> 100	> 100	> 100		
COc1ccc2c(c1)OC1=C(C(=O)OC1)C2c1cc(OC)c2c(c1)OCCO2 (stereo not drawn)	0.122	> 100	0.0647		0.182	> 100			0.126	> 100			0.048	> 100	0.0483	> 100	> 100	0.0714	0.0512	0.0285
